Results published in patent US20260137079A1, “DISPENSER AND METHOD OF USE THEREOF” (priority 2019, published 2026).

Assay: Suppression of recrystallization of actives that are solid at room temperature
Format: physicochemical
Details: glycol ether solvent with Transfluthrin (TFT)

COCC(C)OCC(C)OC (stereo not shown) [DMM, Dipropylene glycol Dimethyl Ether]
effect on recrystallization of actives solid at room temperature: suppress the recrystallization
